Experimental data taken from ChEMBL document CHEMBL3991601, “The target landscape of clinical kinase drugs” (Science, 2017).
The source made the active and inactive calls.

Tests used:
[1] = target: Serine/threonine-protein kinase SIK3 (Homo sapiens, UniProt Q9Y2K2)
[2] = target: T1, Breakpoint cluster region protein (Homo sapiens, UniProt P11274)
T1 sequence (P11274 whole entry): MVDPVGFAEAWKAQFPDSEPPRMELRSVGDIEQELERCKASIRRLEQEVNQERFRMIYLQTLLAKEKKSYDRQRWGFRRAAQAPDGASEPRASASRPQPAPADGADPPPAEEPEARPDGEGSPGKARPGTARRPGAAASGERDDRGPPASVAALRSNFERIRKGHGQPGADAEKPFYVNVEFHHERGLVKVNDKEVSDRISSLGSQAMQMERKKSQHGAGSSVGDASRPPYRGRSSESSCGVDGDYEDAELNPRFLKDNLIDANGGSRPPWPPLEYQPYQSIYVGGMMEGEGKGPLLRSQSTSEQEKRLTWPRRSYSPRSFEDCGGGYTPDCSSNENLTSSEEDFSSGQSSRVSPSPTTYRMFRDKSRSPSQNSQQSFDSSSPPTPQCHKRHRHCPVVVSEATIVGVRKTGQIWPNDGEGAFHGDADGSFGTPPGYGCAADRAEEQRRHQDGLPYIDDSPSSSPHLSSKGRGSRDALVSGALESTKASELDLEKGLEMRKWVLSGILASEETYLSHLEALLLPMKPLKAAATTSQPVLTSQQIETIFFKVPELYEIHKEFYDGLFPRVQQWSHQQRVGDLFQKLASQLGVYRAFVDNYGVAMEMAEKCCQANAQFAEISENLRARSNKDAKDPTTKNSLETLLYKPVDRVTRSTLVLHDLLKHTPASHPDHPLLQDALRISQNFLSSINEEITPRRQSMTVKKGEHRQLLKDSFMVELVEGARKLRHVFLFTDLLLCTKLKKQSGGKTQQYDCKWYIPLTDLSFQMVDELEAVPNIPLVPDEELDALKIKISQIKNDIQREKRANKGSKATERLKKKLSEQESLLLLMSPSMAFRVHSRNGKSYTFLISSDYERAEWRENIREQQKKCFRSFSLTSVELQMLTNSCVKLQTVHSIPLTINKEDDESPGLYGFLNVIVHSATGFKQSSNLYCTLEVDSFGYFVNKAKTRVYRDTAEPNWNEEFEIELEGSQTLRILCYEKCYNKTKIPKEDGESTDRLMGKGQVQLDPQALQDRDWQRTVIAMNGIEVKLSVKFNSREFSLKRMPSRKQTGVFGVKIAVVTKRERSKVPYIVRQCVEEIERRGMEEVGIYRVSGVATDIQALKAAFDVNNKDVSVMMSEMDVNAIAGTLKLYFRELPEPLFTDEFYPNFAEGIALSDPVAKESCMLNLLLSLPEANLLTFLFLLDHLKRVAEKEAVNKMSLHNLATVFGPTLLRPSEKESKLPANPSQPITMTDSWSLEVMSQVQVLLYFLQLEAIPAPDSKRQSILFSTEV

[3] = target: Bone morphogenetic protein receptor type-1A (Homo sapiens, UniProt P36894)
[4] = target: T2, Signal recognition particle receptor subunit alpha (Homo sapiens, UniProt P08240)
T2 sequence (P08240 whole entry): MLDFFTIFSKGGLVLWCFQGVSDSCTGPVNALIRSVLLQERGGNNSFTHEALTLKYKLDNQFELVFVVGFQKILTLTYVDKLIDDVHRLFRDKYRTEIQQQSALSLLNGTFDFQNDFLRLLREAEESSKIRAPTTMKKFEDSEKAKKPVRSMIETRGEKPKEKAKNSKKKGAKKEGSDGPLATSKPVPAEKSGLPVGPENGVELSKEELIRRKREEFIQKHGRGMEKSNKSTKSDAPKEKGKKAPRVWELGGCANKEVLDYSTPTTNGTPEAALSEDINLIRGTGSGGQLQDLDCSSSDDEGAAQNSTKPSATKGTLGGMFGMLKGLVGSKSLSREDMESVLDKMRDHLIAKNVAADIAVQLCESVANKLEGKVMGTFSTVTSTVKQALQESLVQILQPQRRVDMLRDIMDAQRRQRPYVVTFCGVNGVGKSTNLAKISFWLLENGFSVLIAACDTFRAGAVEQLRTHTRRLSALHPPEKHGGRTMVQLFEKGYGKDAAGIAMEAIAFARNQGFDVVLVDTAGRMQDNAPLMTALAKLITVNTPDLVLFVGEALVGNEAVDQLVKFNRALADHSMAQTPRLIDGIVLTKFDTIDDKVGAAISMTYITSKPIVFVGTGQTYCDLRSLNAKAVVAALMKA

[5] = target: T3, Phenylalanine--tRNA ligase beta subunit (Homo sapiens, UniProt Q9NSD9)
T3 sequence (Q9NSD9 whole entry): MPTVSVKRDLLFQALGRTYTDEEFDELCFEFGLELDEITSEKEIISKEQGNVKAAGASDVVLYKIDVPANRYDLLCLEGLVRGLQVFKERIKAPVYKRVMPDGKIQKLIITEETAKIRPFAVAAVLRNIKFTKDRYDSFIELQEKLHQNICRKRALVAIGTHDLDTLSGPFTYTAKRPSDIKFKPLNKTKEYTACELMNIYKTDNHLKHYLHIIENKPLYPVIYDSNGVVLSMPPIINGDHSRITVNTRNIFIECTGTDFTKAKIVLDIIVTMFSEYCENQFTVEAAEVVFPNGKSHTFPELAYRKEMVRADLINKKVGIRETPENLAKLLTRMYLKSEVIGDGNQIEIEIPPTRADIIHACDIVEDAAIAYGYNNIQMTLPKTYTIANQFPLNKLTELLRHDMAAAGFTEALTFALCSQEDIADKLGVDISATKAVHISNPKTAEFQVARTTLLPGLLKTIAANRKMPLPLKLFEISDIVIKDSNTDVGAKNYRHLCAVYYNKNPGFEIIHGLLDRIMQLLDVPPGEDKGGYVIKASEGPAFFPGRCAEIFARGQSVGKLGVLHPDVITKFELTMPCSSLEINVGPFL

[6] = target: Casein kinase I isoform epsilon (Homo sapiens, UniProt P49674)
Note: in the data inactive means no Kd found up to 30 µM.

Chain of Bone morphogenetic protein receptor type-1A (P36894 whole entry): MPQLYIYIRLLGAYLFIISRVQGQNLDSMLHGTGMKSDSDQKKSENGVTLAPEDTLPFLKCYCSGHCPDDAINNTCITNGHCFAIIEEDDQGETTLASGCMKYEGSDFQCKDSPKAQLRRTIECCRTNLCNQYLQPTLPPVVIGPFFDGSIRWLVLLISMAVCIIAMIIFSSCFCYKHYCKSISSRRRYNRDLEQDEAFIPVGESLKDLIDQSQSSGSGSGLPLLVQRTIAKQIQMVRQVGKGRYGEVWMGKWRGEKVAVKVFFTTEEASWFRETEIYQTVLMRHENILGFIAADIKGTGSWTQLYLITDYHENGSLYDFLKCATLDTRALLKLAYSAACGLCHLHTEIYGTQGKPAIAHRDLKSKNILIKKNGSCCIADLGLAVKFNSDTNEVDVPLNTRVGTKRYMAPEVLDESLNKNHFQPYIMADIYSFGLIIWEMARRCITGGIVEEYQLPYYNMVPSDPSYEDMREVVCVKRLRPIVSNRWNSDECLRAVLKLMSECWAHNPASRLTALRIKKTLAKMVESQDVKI
Chain of Serine/threonine-protein kinase SIK3 (Q9Y2K2 whole entry): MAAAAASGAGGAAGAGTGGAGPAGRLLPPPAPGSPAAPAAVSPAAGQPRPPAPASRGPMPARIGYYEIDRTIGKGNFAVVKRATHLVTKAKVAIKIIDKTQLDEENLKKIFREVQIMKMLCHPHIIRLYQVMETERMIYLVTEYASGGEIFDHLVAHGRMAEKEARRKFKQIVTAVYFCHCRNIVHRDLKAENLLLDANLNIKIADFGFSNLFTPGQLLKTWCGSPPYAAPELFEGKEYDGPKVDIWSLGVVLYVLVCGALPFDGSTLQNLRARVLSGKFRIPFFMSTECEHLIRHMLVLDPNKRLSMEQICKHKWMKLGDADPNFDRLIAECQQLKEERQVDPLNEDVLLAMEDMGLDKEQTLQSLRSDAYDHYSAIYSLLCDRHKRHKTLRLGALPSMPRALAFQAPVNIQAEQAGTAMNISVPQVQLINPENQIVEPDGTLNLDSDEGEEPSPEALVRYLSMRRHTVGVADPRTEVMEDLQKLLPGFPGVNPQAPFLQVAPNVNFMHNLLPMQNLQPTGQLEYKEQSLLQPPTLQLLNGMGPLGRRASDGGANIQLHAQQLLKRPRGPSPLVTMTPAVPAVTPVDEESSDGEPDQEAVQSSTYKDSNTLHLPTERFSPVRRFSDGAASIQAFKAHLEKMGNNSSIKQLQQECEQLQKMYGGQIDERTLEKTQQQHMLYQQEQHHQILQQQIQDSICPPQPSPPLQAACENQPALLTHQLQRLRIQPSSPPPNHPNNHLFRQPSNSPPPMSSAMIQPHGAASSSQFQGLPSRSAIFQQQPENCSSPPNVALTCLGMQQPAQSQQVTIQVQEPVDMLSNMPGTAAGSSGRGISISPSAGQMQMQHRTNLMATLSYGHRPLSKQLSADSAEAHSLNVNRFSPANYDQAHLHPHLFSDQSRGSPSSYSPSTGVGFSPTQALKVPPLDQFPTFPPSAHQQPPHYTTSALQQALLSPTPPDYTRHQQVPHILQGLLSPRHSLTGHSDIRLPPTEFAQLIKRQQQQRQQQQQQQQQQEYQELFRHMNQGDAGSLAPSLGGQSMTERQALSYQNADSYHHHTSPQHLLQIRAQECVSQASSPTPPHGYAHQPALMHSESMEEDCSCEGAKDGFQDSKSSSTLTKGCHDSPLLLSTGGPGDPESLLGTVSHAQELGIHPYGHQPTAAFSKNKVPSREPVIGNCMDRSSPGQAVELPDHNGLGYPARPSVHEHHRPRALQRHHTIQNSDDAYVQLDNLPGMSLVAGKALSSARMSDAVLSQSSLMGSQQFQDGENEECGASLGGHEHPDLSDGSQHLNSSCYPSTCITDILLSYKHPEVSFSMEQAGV
Chain of Casein kinase I isoform epsilon (P49674 whole entry, canonical isoform): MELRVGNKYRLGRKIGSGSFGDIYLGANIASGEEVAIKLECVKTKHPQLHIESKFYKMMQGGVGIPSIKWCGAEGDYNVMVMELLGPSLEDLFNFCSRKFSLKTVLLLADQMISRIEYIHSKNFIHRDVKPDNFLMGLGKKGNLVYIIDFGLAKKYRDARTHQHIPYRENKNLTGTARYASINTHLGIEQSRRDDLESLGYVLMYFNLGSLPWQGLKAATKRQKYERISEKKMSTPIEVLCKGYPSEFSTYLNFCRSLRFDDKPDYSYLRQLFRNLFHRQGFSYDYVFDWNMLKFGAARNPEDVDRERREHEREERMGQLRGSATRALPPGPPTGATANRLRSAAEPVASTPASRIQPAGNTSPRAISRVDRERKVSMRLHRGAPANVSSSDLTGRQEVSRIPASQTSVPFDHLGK

| Structure (SMILES) | Kd [1] | Kd [2] | Kd [3] | Kd [4] | Kd [5] | Kd [6] |
| --- | --- | --- | --- | --- | --- | --- |
| CO[C@H]1C[C@@H]2CC[C@@H](C)[C@@](O)(O2)C(=O)C(=O)N2CCCC[C@H]2C(=O)O[C@H]([C@H](C)C[C@@H]2CC[C@@H](OCCO)[C@H](OC)C2)CC(=O)[C@H](C)/C=C(\C)[C@@H](O)[C@@H](OC)C(=O)[C@H](C)C[C@H](C)/C=C/C=C/C=C/1C [EVEROLIMUS] | > 30 µM (inactive) | > 30 µM (inactive) | > 30 µM (inactive) | > 30 µM (inactive) | > 30 µM (inactive) | > 30 µM (inactive) |
| CCN1CCN(Cc2ccc(-c3cc4c(N[C@H](C)c5ccccc5)ncnc4[nH]3)cc2)CC1 [AEE-788] | > 30 µM (inactive) | 0.495 µM (active) | > 30 µM (inactive) | > 30 µM (inactive) | > 30 µM (inactive) | > 30 µM (inactive) |
| CC(=O)Nc1cccc(-n2c(=O)n(C3CC3)c(=O)c3c(Nc4ccc(I)cc4F)n(C)c(=O)c(C)c32)c1 [TRAMETINIB] | > 30 µM (inactive) | > 30 µM (inactive) | > 30 µM (inactive) | > 30 µM (inactive) | > 30 µM (inactive) | > 30 µM (inactive) |
| O=C(O)[C@]1(Cc2cccc(Nc3nccs3)n2)CC[C@@H](Oc2cccc(Cl)c2F)CC1 [MK-5108] | > 30 µM (inactive) | 0.011 µM (active) | > 30 µM (inactive) | > 30 µM (inactive) | > 30 µM (inactive) | > 30 µM (inactive) |
| C1=C/COCc2cc(ccc2OCCN2CCCC2)Nc2nccc(n2)-c2cccc(c2)COC/1 [PACRITINIB] | > 30 µM (inactive) | > 30 µM (inactive) | > 30 µM (inactive) | > 30 µM (inactive) | > 30 µM (inactive) | > 30 µM (inactive) |
| N[C@@H]1CCCN(c2c(/C=C3\SC(=O)NC3=O)cccc2-c2ccccc2)C1 | > 30 µM (inactive) | > 30 µM (inactive) | > 30 µM (inactive) | > 30 µM (inactive) | > 30 µM (inactive) | > 30 µM (inactive) |
| Cc1ccc(NC(=O)c2ccc(CN3CC[C@H](N(C)C)C3)c(C(F)(F)F)c2)cc1Nc1nccc(-c2cncnc2)n1 [BAFETINIB] | > 30 µM (inactive) | 0.015 µM (active) | > 30 µM (inactive) | > 30 µM (inactive) | > 30 µM (inactive) | > 30 µM (inactive) |
| O=C(Nc1ccc(-c2ccnc(Nc3ccc(N4CCOCC4)cc3)n2)cc1)C1CCCN1 (stereo not drawn) [XL-019] | 0.206 µM (active) | > 30 µM (inactive) | > 30 µM (inactive) | > 30 µM (inactive) | > 30 µM (inactive) | > 30 µM (inactive) |
| O=C(c1ccc(F)c(F)c1Nc1ccc(I)cc1F)N1CC(O)([C@@H]2CCCCN2)C1 [COBIMETINIB] | > 30 µM (inactive) | > 30 µM (inactive) | > 30 µM (inactive) | > 30 µM (inactive) | > 30 µM (inactive) | > 30 µM (inactive) |
| C[C@@H]1CN(Cc2ccc(F)cc2)[C@@H](C)CN1C(=O)c1cc2c(C(=O)C(=O)N(C)C)cn(C)c2cc1Cl [TALMAPIMOD] | > 30 µM (inactive) | > 30 µM (inactive) | > 30 µM (inactive) | > 30 µM (inactive) | > 30 µM (inactive) | > 30 µM (inactive) |
| Cc1cc(-c2cc(O)ccc2Cl)cc2nnc(Nc3ccc(OCCN4CCCC4)cc3)nc12 | 0.003 µM (active) | 0.001 µM (active) | > 30 µM (inactive) | > 30 µM (inactive) | > 30 µM (inactive) | > 30 µM (inactive) |
| COc1cc(CCc2cc(NC(=O)c3ccc(N4C[C@@H](C)N[C@@H](C)C4)cc3)n[nH]2)cc(OC)c1 [AZD-4547] | > 30 µM (inactive) | > 30 µM (inactive) | > 30 µM (inactive) | > 30 µM (inactive) | > 30 µM (inactive) | > 30 µM (inactive) |
| Cc1cc([C@@H](C)Nc2ccccc2C(=O)O)c2nc(N3CCOCC3)cc(=O)n2c1 [AZD-6482] | > 30 µM (inactive) | > 30 µM (inactive) | > 30 µM (inactive) | > 30 µM (inactive) | > 30 µM (inactive) | > 30 µM (inactive) |
